Data set [1] has as its target T1, ALDH1A1 (Homo sapiens, UniProt P00352).
T1 construct: purchased
T1 sequence (P00352 1-501): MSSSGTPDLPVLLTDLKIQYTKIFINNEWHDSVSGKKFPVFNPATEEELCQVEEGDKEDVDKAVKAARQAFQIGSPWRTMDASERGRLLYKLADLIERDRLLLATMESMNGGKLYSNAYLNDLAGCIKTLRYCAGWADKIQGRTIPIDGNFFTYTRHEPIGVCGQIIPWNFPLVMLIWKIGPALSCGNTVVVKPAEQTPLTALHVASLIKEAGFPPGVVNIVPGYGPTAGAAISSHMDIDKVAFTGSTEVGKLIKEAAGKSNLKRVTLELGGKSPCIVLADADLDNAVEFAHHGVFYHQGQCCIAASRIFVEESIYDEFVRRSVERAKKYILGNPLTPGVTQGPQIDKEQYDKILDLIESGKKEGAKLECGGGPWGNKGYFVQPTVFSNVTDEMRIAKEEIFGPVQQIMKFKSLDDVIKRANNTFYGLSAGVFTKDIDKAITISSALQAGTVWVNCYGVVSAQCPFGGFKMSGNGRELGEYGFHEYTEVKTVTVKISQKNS
Kind of data set: Reactivity of probes to recombinant ALDH1A1 (UPLC/MS/MS detection of aldehyde and carboxylic acid forms). To be noted: 10-100 nM ALDH, 10-80 μM compound, Tris buffer pH 7.5, 30 minutes at 37° C., ◯/X not defined by a legend. Format: biochemical. The procedure:
(§1) Human recombinant ALDH1A1/1A3/3A1 was purchased, and 100 mM of KCL, 2 mM of DTT, 1 mM of NAD(P), 10-100 nM of each ALDH, and 10-80 μM of each compound were mixed in Tris buffer (100 mM, pH 7.5), reacted for 30 minutes at 37° C., an equal amount of acetonitrile added, and the reaction stopped. The reaction solution was analyzed by UPLC/MS/MS (Waters). The UPCL chromatogram was carried out over five minutes at a flow rate of 800 μL/min by a linear gradient from 5% acetonitrile 0.01 M ammonium formate/water to 95% acetonitrile 0.01 M ammonium formate/water. An aldehyde-form and carboxylic acid-form probe were detected by the absorbance at a wavelength of 504 nm, and m/z of the MS spectrum at each peak was confirmed to agree with the expected m/z.

The target in data set [2] is T2, ALDH3A1 (Homo sapiens, UniProt P30838).
T2 construct: purchased
T2 sequence (P30838 1-453): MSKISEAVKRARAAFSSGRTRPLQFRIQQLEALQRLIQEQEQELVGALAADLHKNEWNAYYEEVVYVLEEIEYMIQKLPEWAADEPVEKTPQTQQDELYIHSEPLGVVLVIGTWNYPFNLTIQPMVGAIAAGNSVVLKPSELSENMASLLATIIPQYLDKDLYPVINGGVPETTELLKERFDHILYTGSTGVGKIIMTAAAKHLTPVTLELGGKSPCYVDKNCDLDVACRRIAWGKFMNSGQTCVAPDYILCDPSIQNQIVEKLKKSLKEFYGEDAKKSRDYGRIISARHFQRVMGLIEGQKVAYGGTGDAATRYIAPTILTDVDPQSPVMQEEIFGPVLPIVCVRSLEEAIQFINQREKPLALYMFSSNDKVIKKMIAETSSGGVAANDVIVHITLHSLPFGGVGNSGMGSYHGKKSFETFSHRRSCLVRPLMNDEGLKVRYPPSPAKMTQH
Kind of data set: Reactivity of probes to recombinant ALDH3A1 (UPLC/MS/MS). The note with it: 10-100 nM ALDH, 10-80 μM compound, Tris buffer pH 7.5, 30 minutes at 37° C., ◯/X not defined by a legend. Type of data set: biochemical. The procedure: (§2) Human recombinant ALDH1A1/1A3/3A1 was purchased, and 100 mM of KCL, 2 mM of DTT, 1 mM of NAD(P), 10-100 nM of each ALDH, and 10-80 μM of each compound were mixed in Tris buffer (100 mM, pH 7.5), reacted for 30 minutes at 37° C., an equal amount of acetonitrile added, and the reaction stopped. The reaction solution was analyzed by UPLC/MS/MS (Waters). The UPCL chromatogram was carried out over five minutes at a flow rate of 800 μL/min by a linear gradient from 5% acetonitrile 0.01 M ammonium formate/water to 95% acetonitrile 0.01 M ammonium formate/water.

Data set [3] addresses T1, ALDH1A1. Kind of data set: Kinetic characteristics (Michaelis-Menten Km, Kcat) with ALDH1A1. Format: biochemical. To be noted: five minutes at 37° C., Tris buffer pH 7.5. The procedure: as §1
(§3) For the reaction, 100 mM of KCL, 2 mM of DTT, 1 mM of NAD(P), and five to six concentrations within the range of 10-100 nM of each ALDH and 0.1-80 μM of each probe were selected, mixed in Tris buffer (100 mM, pH 7.5), and reacted for five minutes at 37° C.; an equal amount of acetonitrile was added, and the reaction was stopped. Detection of the aldehyde-form/carboxylic acid-form probes was carried out using the same method as described above by UPLC/MS/MS. Km and Kcat were calculated by fitting the reaction rate at each probe concentration obtained to the Michaelis-Menten equation. A Kaleida Graph ver. 4.1 (Hulinks, Inc.) was used in fitting.

Data set [4] deals with T2, ALDH3A1. Kind of data set: Kinetic characteristics (Michaelis-Menten Km, Kcat) with ALDH3A1. Format: biochemical. The procedure:
as §1, §3
The Kcat ratio (Kcat of ALDH3A1/Kcat of ALDH1A1) was calculated for probe 1, probe 3, and probe 5 as an indicator of ALDH1A1/ALDH3A1 specificity because the probe reaction rate at the actual probe use concentration is believed to be close to Vmax since Km is relatively small (Table 5).

Data set [5] is described as follows: HPLC (LC/MS) retention time as measure of hydrophilicity / membrane permeability. Format: physicochemical. To be noted: C18 column; 20% B 2.5 min, 20%-->100% B 5 min, 500 μL/min; neutral conditions; mean±SD of three tests. As for the experimental part:
In the present invention, it is preferable to use the retention time on an HPLC chromatogram as the measure of hydrophilicity.
HPLC conditions: taking solvent A to be 0.01 M ammonium formate/water and solvent B to be 80% acetonitrile 0.01 M ammonium formate/water, chromatography is carried out under conditions of 20% solvent B for 2.5 minutes followed by a 5-minute linear gradient of solvent B from 20% to 100% (flow rate 500 μL/min).
A C18 column (HP 3 μm, inner diameter: 2.1 mm, length: 150 mm, GL Science), for example, can be used suitably as the column.
The water solubility was verified by LC/MS under neutral conditions to compare the membrane permeability of the five probes produced above and ALDEFLUOR. The reaction was stopped after advancing the reaction to the point that each probe was present as both a carboxylic acid form and an aldehyde form using a suitable isoform and concentration of ALDH, and analysis was conducted by LC/MS (Agilent 1200/6130 quadrupole LC/MS system). A C18 column (HP 3 μm, inner diameter: 2.1 mm, length: 150 mm, GL Science) was used as the column. HPLC chromatograms were carried out by 20% B for 2.5 minutes followed by a five-minute linear gradient (flow rate: 500 μL/min) from 20% to 100% B, taking solvent A to be 0.01 M ammonium formate/water and solvent B to be 80% acetonitrile 0.01 M ammonium formate/water. The probe containing BODIPY was detected by the absorbance at a wavelength of 504 nm and the probe containing TG at a wavelength of 495 nm, and m/z of the MS spectrum at each peak was confirmed to agree with the expected m/z. Three independent tests were run, and the mean±SD was calculated. […] Given that imaging of probe 1 was not successful, there was thought to be a threshold at which the membrane permeability changes rapidly between this 6.741 minutes and 7.098 minutes (band in FIG. 2).

Another data set has as its system OE21 cell line. Kind of data set: Cell imaging of OE21 cells against CB7 negative control. Format: cell-based. To be noted: probe 5: 40 μM, 90 minutes at 37° C., CB7 10 μM control. The procedure: 40 μM of probe 5 was added to culture medium (RPMI 1640, 10% FBS, 15 mM HEPES, phenol red-free). After culturing for 90 minutes at 37° C., the cells were washed using a chilled medium and examined under a confocal microscope. A sample with a specific ALDH3A1 inhibitor (1-[(4-fluorophenyl)sulfonyl]-2-methyl-1H-benzimidazole, CB7, 10 μM) added served as a negative control. Excitation was provided by a 488 nm laser, and observation was carried out at wavelengths of […] in detection.

For another data set, the target named is T3, ALDH1A3 (Homo sapiens, UniProt P47895).
T3 construct: purchased
T3 sequence (P47895 1-512): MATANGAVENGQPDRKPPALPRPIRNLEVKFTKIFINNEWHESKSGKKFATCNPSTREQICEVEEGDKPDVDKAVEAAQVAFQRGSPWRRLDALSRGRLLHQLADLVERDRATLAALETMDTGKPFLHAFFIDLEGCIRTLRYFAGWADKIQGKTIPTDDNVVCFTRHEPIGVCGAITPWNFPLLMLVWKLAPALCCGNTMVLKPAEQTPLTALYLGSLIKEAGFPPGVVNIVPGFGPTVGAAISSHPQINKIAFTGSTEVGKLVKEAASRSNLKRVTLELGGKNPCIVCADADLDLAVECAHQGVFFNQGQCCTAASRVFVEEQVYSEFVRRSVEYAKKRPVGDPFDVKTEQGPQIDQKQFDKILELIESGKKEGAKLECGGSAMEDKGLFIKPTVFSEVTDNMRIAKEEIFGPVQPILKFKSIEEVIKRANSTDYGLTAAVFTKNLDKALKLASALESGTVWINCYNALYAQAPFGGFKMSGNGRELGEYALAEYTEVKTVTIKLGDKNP
Kind of data set: Reactivity of probes to recombinant ALDH1A3 (UPLC/MS/MS). Type of data set: biochemical. To be noted: 10-100 nM ALDH, 10-80 μM compound, Tris buffer pH 7.5, 30 minutes at 37° C.; ◯/X not defined by a legend. The procedure:
as §2

A further data set relates to A549 cells. An excerpt: An esophageal squamous cell carcinoma cell line (OE21 cell line) which are cells that express a high level of ALDH3A1 was used as the cells.
Substrate in data set [6]: CCN(CCOCCNC(=O)c1ccc(-c2c3ccc(=O)cc-3oc3cc(O)ccc23)c(C)c1)c1ccc(C=O)cc1
Kind of data set: Kinetic characteristics (Michaelis-Menten Km, Kcat) with ALDH1A1. Format: biochemical, Human. The note with it: other: five minutes at 37° C., Tris buffer pH 7.5. As for the experimental part:
as §1, §3

Setting [7] is: five minutes at 37° C., Tris buffer pH 7.5.

For “2-(N-ethyl-N-(4-formylphenyl)amino)ethyl-3-(1,3-dimethyl-4,4-difluoro-4-bora-3a,4a-diaza-s-indacen-5-yl)-propionamide [Probe 3]”, the “Reactivity to ALDH1A1” value on ALDH1A1 [1] was “◯”; on ALDH1A1 [1] (listed as compound 3), “reacted with ALDH1A1 and ALDH3A1”. Also, the “Reactivity to ALDH3A1” value on ALDH3A1 [2] was “◯”; at ALDH3A1 [2] (listed as compound 3), “reacted with ALDH1A1 and ALDH3A1”. Also, the “Kcat ALDH1A1” value at ALDH1A1 [3] worked out at 0.101 ± 0.00333 s⁻¹. Also, the Km at ALDH1A1 [3] was 0.17 ± 0.03 µM; on ALDH3A1 [4] (setting [7]), 0.87 ± 0.07 µM. For the same molecule, the “Kcat ALDH3A1” value at ALDH3A1 [4] (setting [7]) amounted to 0.203 ± 0.0033 s⁻¹. Also, the “Kcat ratio (Kcat of ALDH3A1/Kcat of ALDH1A1)” value on ALDH3A1 [4] (indicator of ALDH1A1/ALDH3A1 specificity) was determined as 2. Moreover, the “Retention Time, Aldehyde form” value in data set [5] stood at 9.153 ± 0.010 min. Besides, the “Retention Time, carboxylate (carboxylic acid form)” value in [5] amounted to 7.920 ± 0.052 min. Further, in the data set with OE21 cell line, the “Brightness of cells in imaging compared to negative control (CB7)” value is on record as “no evident difference in brightness could be found in comparison to the negative control”.
In the case of “N-(4-formylphenyl)-3-(1,3-dimethyl-4,4-difluoro-4-bora-3a,4a-diaza-s-indacen-5-yl)-propionamide [Probe 2]”, at ALDH1A1 [1], the “Reactivity to ALDH1A1” value is given as “◯”. The “Reactivity to ALDH1A1” value at ALDH1A1 [1] (listed as compound 2) is “presented reactivity only with ALDH1A1”. For the same molecule, the “Reactivity to ALDH1A3” value on ALDH1A3 was “presented reactivity only with ALDH1A1”. In addition, the “Reactivity to ALDH3A1” value at ALDH3A1 [2] is “presented reactivity only with ALDH1A1”. For the same molecule, on ALDH1A1 [3], the “Kcat ALDH1A1” value was determined as 3.4 ± 0.415 s⁻¹ and the Michaelis constant (Km) was 5.76 ± 2.39 µM. In data set [5], the “Retention Time, Aldehyde form” value came out at 9.330 ± 0.002 min and the “Retention Time, carboxylate (carboxylic acid form)” value is given as 7.284 ± 0.047 min. The “Brightness of cells in imaging compared to negative control” value with A549 cells was “no evident difference in brightness was found in comparison to the negative control”.

B1: ALDH1A1 (Homo sapiens) (protein)
chain: T1 sequence (P00352 1-501)
notes: purchased
B1: in data set [6], the Km is 0.26 ± 0.05 µM and the kcat was 0.017 ± 0.00067 s⁻¹.
